Test results from US20230405132A1, “ANTITUMOR PHARMACEUTICAL COMPOSITION AND USE THEREOF” (JENKEM TECHNOLOGY CO., LTD. (TIANJIN), priority 2020, published 2023).
Structures can show the parent of a compound that is named as a salt.

How the values were obtained:
SK-N-SH cells = experiment: SK-N-SH subcutaneous tumor model in mice: tumor volume and tumor growth inhibition; format: in vivo, mouse; settings: for tumor inhibition rate: SK-N-SH subcutaneous tumor model; for Tumor volume, mean ± standard error: TMZ 20 mg/kg PO, irinotecan hydrochloride or PEG-irinotecan 30 mg/kg IV
Protocol: SK-N-SH cells were cultured in an EMEM medium containing 10% heat-inactivated fetal bovine serum, 100 μg/mL penicillin, and 100 μg/mL streptomycin (incubator condition: 37° C., 5% CO 2). The cells were subcultured twice a week. The cells in the exponential phase were collected, and counted grafting.
2.2 Tumor grafting and grouping 100 μL of a mixture of EMEM and 50% matrigel containing 5×10^6 SK-N-SH cells was grafted subcutaneously at the right abdomen of a mouse, and the tumor growth was observed. 80 animals were randomized according to tumor volume (103 mm 3) by using the grouping randomization method in Excel. […] Each group had 10 tumor-bearing mice.
Tumor volume was measured twice a week using a vernier caliper.
(§1) The body weight and tumor volume were compared by using two-way ANOVA analysis. All data were analyzed using GraphPad Prism 5. p<0.05 indicates statistical significance.

[1] = Body weight of tumor-bearing mice during treatment; format: in vivo, mouse; settings: TMZ 20 mg/kg PO, irinotecan hydrochloride or PEG-irinotecan 30 mg/kg IV
Protocol: All procedures related to animal handling, care, and treatment in this study were performed according to the assessment of the Institutional Animal Care and Use Committee (IACUC) approved by Shanghai BioDuro Co., Ltd. (the CRO) and followed guidelines of the Association for Assessment and Accreditation of Laboratory Animal Care (AAALAC, accreditation number: 001516). In routine monitoring, the animals were examined that whether any adverse effects of tumor growth and/or treatment on normal behavior were present, such as motility, food and water consumption (by observation only), and body weight gain/loss (the body weight was measured twice a week during the pre-administration phase and daily during the administration phase), eye/hair matting and any other abnormalities.
as §1

Compound | 1 − T/C (tumor inhibition rate TGI) (SK-N-SH cells; D 34) [%] | T/C (relative tumor proliferation rate) (SK-N-SH cells; D 34) [%] | tumor inhibition rate (SK-N-SH cells) [%] | Animal body weight, mean ± standard error ([1]; day 24) [g] | Animal body weight, mean ± standard error ([1]; day 27) [g] | Animal body weight, mean ± standard error ([1]; day 31) [g] | Animal body weight, mean ± standard error ([1]; day 34) | Animal body weight, mean ± standard error ([1]; day 38) | Animal body weight, mean ± standard error ([1]; day 41) | TV (b: Tumor volume on day 34) (SK-N-SH cells; Table 5, day 34) [mm^3] | Tumor volume, mean ± standard error (SK-N-SH cells; day 27) [mm^3] | Tumor volume, mean ± standard error (SK-N-SH cells; day 31) [mm^3] | Tumor volume, mean ± standard error (SK-N-SH cells; day 34) | Tumor volume, mean ± standard error (SK-N-SH cells; day 38) | Tumor volume, mean ± standard error (SK-N-SH cells; day 41)
CCc1c2c(nc3ccc(OC(=O)N4CCC(N5CCCCC5)CC4)cc13)-c1cc3c(c(=O)n1C2)COC(=O)[C@]3(O)CC [Irinotecan hydrochloride] | 30.99 | 69.01 | 31.0 | 22 ± 0.4 | 21.8 ± 0.5 | 23 ± 0.5 | 24.3 ± 0.5 g | 23.2 ± 0.4 (n = 8) g | 21 (n = 1) g | – | – | – | – | – | –
Cn1nnc2c(C(N)=O)ncn2c1=O [Temozolomide] | 25.04 | – | 25.0 | 21.7 ± 0.4 | 21.5 ± 0.5 | 22 ± 0.6 | 23.7 ± 0.7 (n = 9) g | 22.5 ± 0.5 (n = 5) g | 23.3 ± 1.1 (n = 2) g | 1827.5 ± 262.2 | 462.9 ± 67.1 | 1071 ± 144.9 | 1827.5 ± 262.2 (n = 9) mm^3 | 2179.6 ± 209.6 (n = 5) mm^3 | 3004.1 ± 100.8 (n = 2) mm^3
